This data set can be described thus: recombinant barcode read abundance after kanamycin selection (control-corrected) (log10(CPM+1)); higher = more efficient recombination; sequences stand for … in AGTGCAGAGAAAATCGGCCAGTTTTCTCTGCCTGCAGTCCGCATGCCGT…AGATTTATGCAGCGGACTGCCTTTCTCCCAAAGTGATAAACCGGACAGTATCATGGACCGGTTTTCCCGGTAATCCGTATTTGCAAGGTTGGTTTCACT; site = the 11-nt target. In outline:
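Two replicates per condition were plated: chloramphenicol/ampicillin LB agar for the control, and chloramphenicol/ampicillin/kanamycin with 0.1 mM IPTG for selection. The pooled E. coli screen behind them paired targets with IS621 bridge RNA target-binding loops. Recombination efficiency is expressed from averaged, control-corrected barcode counts per million at recombinant junctions, as log10(CPM+1).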
For “TGAAGGTCTTGGGTTCTAACCTGTTGCCT (site TGAAGGTCTAG)”, the “recombinant barcode read abundance (log10)” value came to 0.485.
The value for “TGAAGGTCTTGGGTTCTAACCTGTTGCCT (site TGAATGTCTAG)” was 0.362; that for “TGACCTACTTGGGTTCTAACCTGTTGCCA (site CTCTACTCTAC)” was 0.242; that for “TGACCTACTTGGGTTCTAACCTGTTGCCA (site TGACCTACTTG)” was 0.133.
Take “TGACTCTCTTGGGTTCTAACCTGTTGCCT (site TAACTCTCTAG)”: the “recombinant barcode read abundance (log10)” value came out at 0.163.
For “TGACTCTCTTGGGTTCTAACCTGTTGCCT (site TCACTCTCTAG)”, the “recombinant barcode read abundance (log10)” value came out at 0.172.
“TGACTCTCTTGGGTTCTAACCTGTTGCCT (site TGACTCTCTAG)”: the “recombinant barcode read abundance (log10)” value came out at 1.02.
Regarding “TGACTCTCTTGGGTTCTAACCTGTTGCCT (site TTACTCTCTAG)”, the “recombinant barcode read abundance (log10)” value was 0.228.
The figure for “TGAGAAGCTTGGGTTCTAACCTGTTGCCT (site TGACCAGCTAG)” is 0.299; for “TGAGAAGCTTGGGTTCTAACCTGTTGCCT (site TGAGAAGCTAG)” it is 1.1; for “TGAGCACCTTGGGTTCTAACCTGTTGCCT (site AGAGGACCTAG)” it is 0.158.
As for “TGAGCACCTTGGGTTCTAACCTGTTGCCT (site TGAGCACCTAG)”, the “recombinant barcode read abundance (log10)” value worked out at 1.74.
The figure for “TGAGGCACTTGGGTTCTAACCTGTTGCCT (site TGAGGATCTAG)” is 0.03; for “TGAGGCACTTGGGTTCTAACCTGTTGCCT (site TGAGGCACTAG)” it is 0.474.
The value for “TGAGGGCCTTGGGTTCTAACCTGTTGCCT (site AGAGGTCCTAG)” was 0.186.
For the sequence “TGAGGGCCTTGGGTTCTAACCTGTTGCCT (site TGAGGGCCTAG)”, the “recombinant barcode read abundance (log10)” value is 1.26.
The figure for “TGAGGGGCTTGGGTTCTAACCTGTTGCCT (site TGAGAGGCTAG)” is 0.275; for “TGAGGGGCTTGGGTTCTAACCTGTTGCCT (site TGAGCGGCTAG)” it is 0.242.
In the case of “TGAGGGGCTTGGGTTCTAACCTGTTGCCT (site TGAGGGGCTAG)”, the “recombinant barcode read abundance (log10)” value is 1.24.
The figure for “TGAGGGGCTTGGGTTCTAACCTGTTGCCT (site TGAGTGGCTAG)” is 0.197; for “TGAGGGTCTTGGGTTCTAACCTGTTGCTT (site AGAGGGTCTAA)” it is 0.497.
On to “TGAGGGTCTTGGGTTCTAACCTGTTGCTT (site CGAGGGTCTAA)”, for which the “recombinant barcode read abundance (log10)” value turned out to be 0.136.
The figure for “TGAGGGTCTTGGGTTCTAACCTGTTGCTT (site GGAGGGTCTAA)” is 0.0368; for “TGAGGGTCTTGGGTTCTAACCTGTTGCTT (site TGAGGGTCTAA)” it is 0.452; for “TGAGTCTCTTGGGTTCTAACCTGTTGCCA (site ACCCAGCCTCT)” it is 0.0473.
As for “TGAGTCTCTTGGGTTCTAACCTGTTGCCA (site TGAGTCTCTTG)”, the “recombinant barcode read abundance (log10)” value amounted to 1.47.
With “TGAGTTCCTTGGGTTCTAACCTGTTGCTT (site TGAGTACCTAA)”, the “recombinant barcode read abundance (log10)” value stood at 0.0626.
The value for “TGAGTTCCTTGGGTTCTAACCTGTTGCTT (site TGAGTCCCTAA)” was 0.0401; that for “TGAGTTCCTTGGGTTCTAACCTGTTGCTT (site TGAGTGCCTAA)” was 0.00865.
The value for “TGAGTTCCTTGGGTTCTAACCTGTTGCTT (site TGAGTTCCTAA)” was 0.719; that for “TGATAGACTTGGGTTCTAACCTGTTGCAC (site AGAGAGACTGT)” was 0.0172.
The value for “TGATAGACTTGGGTTCTAACCTGTTGCAC (site TGATAGACTGT)” was 1.38; that for “TGATTTCCTTGGGTTCTAACCTGTTGCCT (site AGATTGCCTAG)” was 0.
Regarding “TGATTTCCTTGGGTTCTAACCTGTTGCCT (site TGATTTCCTAG)”, the “recombinant barcode read abundance (log10)” value came out at 0.
In the case of “TGCAATACTTGGGTTCTAACCTGTTGCAT (site ACAGTATCTCA)”, the “recombinant barcode read abundance (log10)” value was 0.054.
Regarding “TGCAATACTTGGGTTCTAACCTGTTGCAT (site TGCAATACTAT)”, the “recombinant barcode read abundance (log10)” value was 0.136.
The figure for “TGCAGGGCTTGGGTTCTAACCTGTTGCGG (site GCATACACTTG)” is 0.177.
For the sequence “TGCAGGGCTTGGGTTCTAACCTGTTGCGG (site TGCAGGGCTCC)”, the “recombinant barcode read abundance (log10)” value is 1.26.
The figure for “TGCCAGACTTGGGTTCTAACCTGTTGCAT (site TGCCAGACTAT)” is 1.12.
As for “TGCCAGACTTGGGTTCTAACCTGTTGCAT (site TGCCAGCCTAG)”, the “recombinant barcode read abundance (log10)” value was determined as 0.466.
The value for “TGCCCGCCTTGGGTTCTAACCTGTTGCCT (site AGCCCGCCTAG)” was 0.0736; that for “TGCCCGCCTTGGGTTCTAACCTGTTGCCT (site CGCCCGCCTAG)” was 0.102.
The value for “TGCCCGCCTTGGGTTCTAACCTGTTGCCT (site GGCCCGCCTAG)” was 0.757; that for “TGCCCGCCTTGGGTTCTAACCTGTTGCCT (site TGCCCGCCTAG)” was 0.292; that for “TGCCGACCTTGGGTTCTAACCTGTTGCCT (site TGCCGACCTAG)” was 0.321.
Take “TGCCGACCTTGGGTTCTAACCTGTTGCCT (site TGCGGAGCTAG)”: the “recombinant barcode read abundance (log10)” value came out at 0.185.
The value for “TGCCTAGCTTGGGTTCTAACCTGTTGCCT (site TGACTAGCTAG)” was 0.0824.
For “TGCCTAGCTTGGGTTCTAACCTGTTGCCT (site TGCCTAGCTAG)”, the “recombinant barcode read abundance (log10)” value stood at 0.24.
The value for “TGCCTAGCTTGGGTTCTAACCTGTTGCCT (site TGGCTAGCTAG)” was 0.11; that for “TGCCTAGCTTGGGTTCTAACCTGTTGCCT (site TGTCTAGCTAG)” was 0.0825.
Regarding “TGCCTATCTTGGGTTCTAACCTGTTGCTT (site ATGTCTACTCT)”, the “recombinant barcode read abundance (log10)” value is 0.325.
Consider “TGCCTATCTTGGGTTCTAACCTGTTGCTT (site TGCCTATCTAA)”, for which the “recombinant barcode read abundance (log10)” value is 0.52.
Regarding “TGCCTGCCTTGGGTTCTAACCTGTTGCCT (site AAGACAACTCC)”, the “recombinant barcode read abundance (log10)” value came to 0.06.
The figure for “TGCCTGCCTTGGGTTCTAACCTGTTGCCT (site TGCCTGCCTAG)” is 0.287.
The figure for “TGCGCCTCTTGGGTTCTAACCTGTTGCTG (site TACGCCTCTTA)” is 0.108.
Consider “TGCGCCTCTTGGGTTCTAACCTGTTGCTG (site TGCGCCTCTCA)”, for which the “recombinant barcode read abundance (log10)” value came out at 1.26.
As to “TGCGCTACTTGGGTTCTAACCTGTTGCCT (site TGCGCAACTAG)”, the “recombinant barcode read abundance (log10)” value came out at 0.0205.
The value for “TGCGCTACTTGGGTTCTAACCTGTTGCCT (site TGCGCCACTAG)” was 0.0462.
For the sequence “TGCGCTACTTGGGTTCTAACCTGTTGCCT (site TGCGCGACTAG)”, the “recombinant barcode read abundance (log10)” value amounted to 0.141.
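Also: IS621 recombinase and bridge RNA in Escherichia coli cells.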
